Patent publication US10093656B2, “Fused-ring or tricyclic aryl pyrimidine compound used as kinase inhibitor” (NANJING SANHOME PHARMACEUTICAL CO., LTD, priority 2015, dated 2018)

What was measured:
[1] = system: NCI-H1975 cells EGFR L858R/T790M; assay: NCI-H1975 cell viability assay (Cell Titer-Glo, 6 days); format: cell-based; conditions: Homo sapiens, 144 h
How it was run: (§1)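 A431 (EGFR WT) and NCI-H1975 (EGFR L858R/T790M) cells treated for 6 days at 37° C, in duplicate with 10 three-fold doses from 10 μM to 0.508 nM final. Viability read as CellTiter-Glo luminescence. IC50 from four-parameter fit of % inhibition.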

[2] = molecular target: T1, EGFR d746-750/T790M (Homo sapiens, UniProt P00533, DEL746-750/T790M); assay: EGFR d746-750/T790M enzyme HTRF inhibition assay; format: biochemical; conditions: 40 μM ATP
T1 construct: purchased Carna Biosciences (Japan)
How it was run: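 0.025 nM enzyme with 1 μM biotin-TK1 peptide and 40 μM ATP, 60 min at 23° C; compound tested at 10 doses, 300 nM to 0.015 nM final. HTRF read (Eu-anti-TK1 antibody 2 nM, XL665 62.5 nM, 60 min at 23° C); IC50 from four-parameter fit of % inhibition.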

[3] = system: A431 cells EGFR WT; assay: A431 cell viability assay (Cell Titer-Glo, 6 days); format: cell-based, human; conditions: for IC50: Homo sapiens, A-431, 144 h, A431 cells, 6 days; for A431:NCI-H1975 (ratio): ratio of cell IC50 A431 to NCI-H1975
How it was run: as §1

[4] = molecular target: T2, INSR (Homo sapiens, UniProt P06213); assay: INSR enzyme HTRF inhibition assay; format: biochemical; conditions: 35 μM ATP, read-out: INSR_IC50
T2 construct: purchased Life technology (Madison, Wis.)
Method: Enzyme: EGFR wild type, EGFR T790M/L858R, EGFR T790M and INSR were purchased from Life technology (Madison, Wis.), EGFR d746-750/T790M was purchased from Carna Biosciences (Japan).
HTRF Kit was purchased from Cis-Bio International which contained the Eu-labeled TK1 antibody, XL665 and biotin-labeled TK1 polypeptide substrates.
Detecting instrument: Envision (PerkinElmer).
The test compound was diluted 3-fold to obtain 10 doses of which the final concentration was from 300 nM to 0.015 nM.
INSR Enzyme Reaction Mixture System:
0.5 nM INSR, 1 μM biotin-TK1 peptide, 35 μM ATP enzyme buffer, a total of which was 10 μL. The reaction plate was white Proxiplate 384-Plus plate (PerkinElmer) and the mixture was reacted at 23° C. for 60 minutes.
Reaction Detection: 10 μL of detection reagent containing Antibody 2 nM and XL665 62.5 nM was added, and the reagent was incubated at 23° C. for 60 minutes. The plates were read by Envision.
The reading is converted to the suppression rate (%) by the following formula […]/(Max-Min)*100%. IC50 Data was measured by four-parameter curve fitting (Model 205 in XLFITS, IDBS).

[5] = molecular target: T3, EGFR wild type (Homo sapiens, UniProt P00533); assay: Wild-type EGFR enzyme HTRF inhibition assay; format: biochemical; conditions: 25 μM ATP, read-out: EGFR WT IC50
T3 construct: purchased Life technology (Madison, Wis.)
How it was run: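 HTRF with 0.05 nM wild-type EGFR, 1 μM biotin-TK1 peptide, 25 μM ATP, 60 min at 23° C; detected with Eu-anti-TK1 antibody 2 nM and XL665 62.5 nM, 60 min at 23° C. Ten 3-fold doses, 300 nM to 0.015 nM final; IC50 by four-parameter fit of % inhibition.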

[6] = system: NCI-H1975 lung cancer patient-derived xenograft (CDX); assay: Pharmacodynamics study in vivo, NCI-H1975 xenograft (CDX) model; set-up: species or system BALB/c nude mice; conditions: AZD9291 5 mg/kg
Method: For example, after 21 days of administration, the tumor volume of the representative compounds 30, 33, 34, 40, 42 and 43 decreased from the beginning of about 149 mm^3 to 3-39 mm^3.
The pharmacological experiments in vivo were performed on BALB/c nude mice that subcutaneously implanted NCI-H1975 lung cancer […] xenograft (CDX).
BALB/c nude mice, female, 6-8 weeks, weighted about 18-22 grams, the mice were kept in a special pathogen-free environment, and in a single ventilation cage (5 mice per cage). The bedding and water of all the cages were disinfected before use. All animals were free to obtain standard certified commercial laboratory diets. A total of 100 mice were purchased from Beijing Vital for research. The tumor tissue (20-30 mm^3) was implanted subcutaneously in the […] of each mouse for tumor growth. The experiment was started when the average tumor volume reached about 150-200 mm^3. The test compound was orally administered daily (compound 30 was administered at 10 mg/kg, compound 33, 34, 40, 42 and 43 were administered at 20 mg/kg and compound AZD9291 was administered continuously for 21 days at 5 mg/kg, the data were shown in Table 3). The tumor volume was measured twice a week with a two-dimensional caliper and the volume was measured in cubic millimeters and calculated by the following formula: V=V=0.5 a×b2, where a and b were the major and minor diameters of the tumor, respectively.

[7] = molecular target: T4, EGFR T790M/L858R (Homo sapiens, UniProt P00533, L858R/T790M); assay: EGFR T790M/L858R enzyme HTRF inhibition assay; format: biochemical; conditions: 20 μM ATP, read-out: EGFR L858R/T79M IC50
T4 construct: purchased Life technology (Madison, Wis.)
How it was run: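 HTRF assay with 0.04 nM enzyme, 1 μM biotin-TK1 peptide and 20 μM ATP, 60 min at 23° C. Product detected with Eu-anti-TK1 antibody/XL665 (60 min at 23° C); compound at 10 doses, 300 nM to 0.015 nM final. IC50 from four-parameter fit.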

T3 sequence (P00533 25-1210): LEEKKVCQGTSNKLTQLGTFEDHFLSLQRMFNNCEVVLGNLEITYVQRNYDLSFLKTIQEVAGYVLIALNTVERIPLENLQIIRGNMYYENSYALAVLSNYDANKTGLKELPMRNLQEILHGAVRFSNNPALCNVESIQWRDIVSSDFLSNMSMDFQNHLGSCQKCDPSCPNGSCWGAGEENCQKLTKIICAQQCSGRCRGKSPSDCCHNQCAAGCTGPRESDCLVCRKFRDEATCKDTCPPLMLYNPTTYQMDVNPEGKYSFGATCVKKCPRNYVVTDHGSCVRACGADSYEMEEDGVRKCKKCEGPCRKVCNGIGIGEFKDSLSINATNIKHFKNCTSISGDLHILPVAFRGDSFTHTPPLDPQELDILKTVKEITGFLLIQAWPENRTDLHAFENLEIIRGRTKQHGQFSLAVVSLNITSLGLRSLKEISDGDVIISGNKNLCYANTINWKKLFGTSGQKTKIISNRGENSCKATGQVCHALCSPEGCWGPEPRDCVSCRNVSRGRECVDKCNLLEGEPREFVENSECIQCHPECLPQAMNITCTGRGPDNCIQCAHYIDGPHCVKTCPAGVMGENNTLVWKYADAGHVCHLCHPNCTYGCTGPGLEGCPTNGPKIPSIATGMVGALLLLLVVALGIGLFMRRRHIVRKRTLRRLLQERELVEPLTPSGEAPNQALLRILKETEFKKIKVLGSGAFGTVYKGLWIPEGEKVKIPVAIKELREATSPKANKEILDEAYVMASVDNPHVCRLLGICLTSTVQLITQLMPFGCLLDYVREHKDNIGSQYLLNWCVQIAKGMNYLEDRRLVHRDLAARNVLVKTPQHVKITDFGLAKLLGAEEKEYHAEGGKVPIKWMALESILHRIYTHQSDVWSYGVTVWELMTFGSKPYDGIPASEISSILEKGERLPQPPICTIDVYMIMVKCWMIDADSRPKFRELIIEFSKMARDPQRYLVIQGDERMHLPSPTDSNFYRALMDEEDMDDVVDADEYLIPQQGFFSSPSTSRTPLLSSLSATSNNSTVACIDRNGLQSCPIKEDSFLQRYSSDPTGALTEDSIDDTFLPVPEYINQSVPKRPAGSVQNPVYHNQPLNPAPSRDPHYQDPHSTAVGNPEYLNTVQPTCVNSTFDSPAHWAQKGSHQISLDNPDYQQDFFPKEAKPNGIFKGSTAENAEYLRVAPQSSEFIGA
T1 sequence (P00533 with tags, fused parts or gaps DEL746-750/T790M limits assumed): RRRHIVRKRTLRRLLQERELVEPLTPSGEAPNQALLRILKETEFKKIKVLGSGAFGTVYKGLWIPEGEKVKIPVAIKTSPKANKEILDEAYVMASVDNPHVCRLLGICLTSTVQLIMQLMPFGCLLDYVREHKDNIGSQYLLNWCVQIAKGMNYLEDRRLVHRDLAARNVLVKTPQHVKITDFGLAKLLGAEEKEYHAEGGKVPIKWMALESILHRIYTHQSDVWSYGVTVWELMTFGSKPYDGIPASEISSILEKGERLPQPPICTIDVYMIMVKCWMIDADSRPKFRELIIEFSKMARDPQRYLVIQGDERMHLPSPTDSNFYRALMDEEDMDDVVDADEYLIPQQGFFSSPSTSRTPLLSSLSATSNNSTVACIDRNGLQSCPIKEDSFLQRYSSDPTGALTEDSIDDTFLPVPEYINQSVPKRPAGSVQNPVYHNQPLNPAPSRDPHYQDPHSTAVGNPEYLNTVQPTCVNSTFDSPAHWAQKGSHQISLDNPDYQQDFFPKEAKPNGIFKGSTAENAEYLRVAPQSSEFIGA
T4 sequence (P00533 25-1210 T790M/L858R): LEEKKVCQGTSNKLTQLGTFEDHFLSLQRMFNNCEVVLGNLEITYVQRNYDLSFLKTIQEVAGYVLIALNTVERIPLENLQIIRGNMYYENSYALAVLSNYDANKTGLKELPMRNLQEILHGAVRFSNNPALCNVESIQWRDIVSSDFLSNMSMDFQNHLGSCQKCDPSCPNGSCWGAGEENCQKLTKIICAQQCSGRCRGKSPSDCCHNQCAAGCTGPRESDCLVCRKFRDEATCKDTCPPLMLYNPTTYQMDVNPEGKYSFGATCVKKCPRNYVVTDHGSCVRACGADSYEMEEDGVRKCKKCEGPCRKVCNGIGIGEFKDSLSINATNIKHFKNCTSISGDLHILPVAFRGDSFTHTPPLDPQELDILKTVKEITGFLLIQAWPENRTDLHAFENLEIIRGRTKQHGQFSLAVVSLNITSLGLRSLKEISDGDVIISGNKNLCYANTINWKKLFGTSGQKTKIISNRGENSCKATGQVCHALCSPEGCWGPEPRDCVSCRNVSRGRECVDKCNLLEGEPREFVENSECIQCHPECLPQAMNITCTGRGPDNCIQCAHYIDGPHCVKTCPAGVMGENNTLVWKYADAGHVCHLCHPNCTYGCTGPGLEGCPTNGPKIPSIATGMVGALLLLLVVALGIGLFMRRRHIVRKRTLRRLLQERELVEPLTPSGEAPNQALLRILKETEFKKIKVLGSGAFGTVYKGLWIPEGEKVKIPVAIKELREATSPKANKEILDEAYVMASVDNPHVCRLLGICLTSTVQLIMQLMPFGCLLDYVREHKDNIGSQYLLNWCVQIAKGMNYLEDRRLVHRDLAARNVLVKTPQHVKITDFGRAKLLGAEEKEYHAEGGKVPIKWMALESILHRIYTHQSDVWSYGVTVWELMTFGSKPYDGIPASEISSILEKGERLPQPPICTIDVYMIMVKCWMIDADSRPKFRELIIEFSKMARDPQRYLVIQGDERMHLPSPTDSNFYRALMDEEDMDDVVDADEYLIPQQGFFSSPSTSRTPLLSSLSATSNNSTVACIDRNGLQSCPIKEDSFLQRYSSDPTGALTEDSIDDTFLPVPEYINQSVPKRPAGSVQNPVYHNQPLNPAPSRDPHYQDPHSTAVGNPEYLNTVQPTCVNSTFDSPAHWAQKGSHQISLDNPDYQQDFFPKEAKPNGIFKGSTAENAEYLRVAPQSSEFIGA
T2 sequence (P06213 28-1382): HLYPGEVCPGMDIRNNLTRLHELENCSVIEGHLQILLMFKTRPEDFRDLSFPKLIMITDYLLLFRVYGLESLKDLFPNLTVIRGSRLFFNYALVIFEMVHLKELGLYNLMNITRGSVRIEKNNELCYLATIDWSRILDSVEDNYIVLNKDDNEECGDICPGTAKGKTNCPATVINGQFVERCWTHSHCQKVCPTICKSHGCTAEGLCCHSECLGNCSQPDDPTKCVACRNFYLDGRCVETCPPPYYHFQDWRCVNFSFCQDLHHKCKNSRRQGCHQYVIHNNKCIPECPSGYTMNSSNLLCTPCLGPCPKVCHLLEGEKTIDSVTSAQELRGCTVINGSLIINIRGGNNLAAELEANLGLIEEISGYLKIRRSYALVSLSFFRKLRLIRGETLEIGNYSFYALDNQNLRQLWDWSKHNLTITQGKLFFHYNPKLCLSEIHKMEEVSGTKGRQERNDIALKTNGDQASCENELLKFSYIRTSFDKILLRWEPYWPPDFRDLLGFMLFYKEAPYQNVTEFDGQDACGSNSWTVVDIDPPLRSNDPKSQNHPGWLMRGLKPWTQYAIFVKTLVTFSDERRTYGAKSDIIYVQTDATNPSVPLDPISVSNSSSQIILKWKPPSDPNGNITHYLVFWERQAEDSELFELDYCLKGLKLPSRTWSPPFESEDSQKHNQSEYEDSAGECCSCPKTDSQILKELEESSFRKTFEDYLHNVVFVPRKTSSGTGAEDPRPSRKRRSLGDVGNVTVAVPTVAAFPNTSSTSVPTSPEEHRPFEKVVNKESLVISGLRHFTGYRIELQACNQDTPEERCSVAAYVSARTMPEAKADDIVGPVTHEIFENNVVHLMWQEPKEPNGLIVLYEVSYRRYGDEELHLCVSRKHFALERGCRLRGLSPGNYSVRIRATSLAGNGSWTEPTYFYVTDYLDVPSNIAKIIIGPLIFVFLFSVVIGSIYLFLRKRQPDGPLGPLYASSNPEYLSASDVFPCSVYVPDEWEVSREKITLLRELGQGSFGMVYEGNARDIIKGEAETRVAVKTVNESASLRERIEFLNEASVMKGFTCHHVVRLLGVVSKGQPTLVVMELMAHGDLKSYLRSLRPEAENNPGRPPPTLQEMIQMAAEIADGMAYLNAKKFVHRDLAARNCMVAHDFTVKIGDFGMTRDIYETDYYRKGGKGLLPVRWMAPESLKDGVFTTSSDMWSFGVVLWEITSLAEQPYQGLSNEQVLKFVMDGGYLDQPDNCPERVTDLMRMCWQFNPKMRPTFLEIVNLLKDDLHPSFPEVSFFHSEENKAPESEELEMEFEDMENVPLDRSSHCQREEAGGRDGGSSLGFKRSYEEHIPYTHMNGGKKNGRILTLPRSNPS

IC50 [1] | IC50 [2] | IC50 [3] | IC50 [4] | IC50 [5] | IC50 [7] | SMILES | A431:NCI-H1975 (ratio) [3] | Tumor Volume (mm^3) 4 days ([6]; day 4, oral daily: compound 30 10 mg/kg, 33, 34, 40, 42, 43 20 mg/kg) | Tumor Volume (mm^3) 7 days ([6]; day 7, oral daily: compound 30 10 mg/kg, 33, 34, 40, 42, 43 20 mg/kg) | Tumor Volume (mm^3) 11 days ([6]; day 11, oral daily: compound 30 10 mg/kg, 33, 34, 40, 42, 43 20 mg/kg) | Tumor Volume (mm^3) 14 days ([6]; day 14, oral daily: compound 30 10 mg/kg, 33, 34, 40, 42, 43 20 mg/kg) | Tumor Volume (mm^3) 18 days ([6]; day 18, oral daily: compound 30 10 mg/kg, 33, 34, 40, 42, 43 20 mg/kg)
15 nM | 0.16 nM | 823 nM | 393 nM | 0.8 nM | 0.14 nM | C=CC(=O)Nc1cc(Nc2ncc(F)c(-c3c4n(c5ccccc35)CCOC4)n2)c(OC)cc1N(C)CCN(C)C [Embodiment 30, N-(5-((4-(3,4-Dihydro-1H-[1,4]oxazino[4,3-a]indol-10-yl)-5-fluoropyrimidin-2-yl)amino)-2-((2-(dimethylamino)ethyl)(methyl)amino)-4-methoxyphenyl)acrylamide] | 55 | 115 mm^3 | 90 mm^3 | 48 mm^3 | 34 mm^3 | 22 mm^3
5 nM | 0.19 nM | 485 nM | 570 nM | 1.7 nM | 0.21 nM | C=CC(=O)Nc1cc(Nc2nccc(-c3c4n(c5ccccc35)CCOC4)n2)c(OC)cc1N(C)CCNC [Embodiment 27, N-(5-((4-(3,4-Dihydro-1H-[1,4]oxazino[4,3-a]indol-10-yl)pyrimidin-2-yl)amino)-4-methoxy-2-(methyl(2-(methylamino)ethyl)amino)phenyl)acrylamide] | 97 |  |  |  |  | 
7 nM | 0.1 nM | 317 nM | 310 nM | 0.6 nM | 0.09 nM | C=CC(=O)Nc1cc(Nc2nccc(-c3c4n(c5cc(F)ccc35)CCOC4)n2)c(OC)cc1N(C)CCN(C)C [Embodiment 38, N-(2-((2-(Dimethylamino)ethyl)(methyl)amino)-5-((4-(7-fluoro-3,4-dihydro-1H-[1,4]oxazino[4,3-a]indol-10-yl)pyrimidin-2-yl)amino)-4-methoxyphenyl)acrylamide] | 45 |  |  |  |  | 
10.4 nM | 0.39 nM | 714 nM | 404 nM | 1.49 nM | 0.32 nM | C=CC(=O)Nc1cc(Nc2nccc(-c3c4n(c5ccccc35)CCC4)n2)c(OC)cc1N(C)CCN(C)C [Embodiment 1] | 71.4 |  |  |  |  | 
4 nM | 0.13 nM | 248 nM | 333 nM | 0.81 nM | 0.2 nM | C=CC(=O)Nc1cc(Nc2nccc(-c3c4n(c5ccccc35)CCOC4)n2)c(OC)cc1N(C)CC(C)(C)N(C)C [Embodiment 25, N-(5-((4-(3,4-Dihydro-1H-[1,4]oxazino[4,3-a]indol-10-yl)pyrimidin-2-yl)amino)-2-((2-(dimethylamino)-2-methylpropyl)(methyl)amino)-4-methoxyphenyl)acrylamide] | 62 |  |  |  |  | 
12.5 nM | 0.1 nM | 303 nM | 440 nM | 0.35 nM | 0.1 nM | C=CC(=O)Nc1cc(Nc2nccc(-c3c4n(c5ccc(F)cc35)CCOC4)n2)c(OC)cc1N(C)CCN(C)C [Embodiment 37, N-(2-((2-(Dimethylamino)ethyl)(methyl)amino)-5-((4-(8-fluoro-3,4-dihydro-1H-[1,4]oxazino[4,3-a]indol-10-yl)pyrimidin-2-yl)amino)-4-methoxyphenyl)acrylamide] | 24 |  |  |  |  | 
4.1 nM | 0.18 nM | 777 nM | 341 nM | 0.89 nM | 0.21 nM | C=CC(=O)Nc1cc(Nc2nccc(-c3c4n(c5ccccc35)CCOC4)n2)c(OC)cc1N(C)CCN(C)C [Embodiment 17, N-(5-((4-(3,4-Dihydro-1H-[1,4]oxazino[4,3-a]indol-10-yl)pyrimidin-2-yl)amino)-2-((2-(dimethylamino)ethyl)(methyl)amino)-4-methoxyphenyl)acrylamide] | 189.5 |  |  |  |  | 
67.2 nM | 0.19 nM | 854 nM | 886 nM | 1.58 nM | 0.21 nM | C=CC(=O)Nc1cc(Nc2nccc(-c3c4n(c5ccccc35)CCC4)n2)c(OC)cc1OCCN(C)C [Embodiment 3, N-(5-((4-(2,3-Dihydro-1H-pyrrolo[1,2-a]indol-9-yl)pyrimidin-2-yl)amino)-2-(2-(dimethylamino)ethoxy)-4-methoxyphenyl)acrylamide] | 12.7 |  |  |  |  | 
